Measured values published in patent US20250289808A1 (BenoBio Co., Ltd, priority 2024, published 2025).

Legend:
[1] = test system: macular degeneration animal model; experiment: Laser-induced macular degeneration mouse model, FFA and OCT imaging; format: in vivo; conditions: day 11, compound 0.022 μg/eye, Eylea 20 μg/eye
Method: After the mouse was subjected to general anesthesia, the eye was applied with anesthetic eye drops to be subjected to additional local anesthesia and additionally induce mydriasis. A macular degeneration animal model was prepared by destroying the Bruch's membrane by inducing laser burn according to macular degeneration induction conditions. […] On day 11 of macular degeneration induction, the mice were subjected to general anesthesia and then injected intraperitoneally with a fluorescent contrast agent. The mouse was placed on the sacrifice table, lubricating gel was dropped into the corresponding eye, and an OCT lens was brought into contact with the mouse's cornea. Image analysis for fluorescein fundus angiography (FFA) and OCT was performed using the Image-J program.

[2] = test system: retinal degeneration mouse model; experiment: Electroretinogram (ERG) in blue LED-induced retinal degeneration mouse model; format: in vivo, BALB/c mice; conditions: compound 24 nM, Eylea 25 mg/kg; for Wavelength enhanced multiple compared to a normal saline-treated group, Average value: average of a-wave and b-wave; for Wavelength enhanced multiple compared to a normal saline-treated group, a-wave / Wavelength enhanced multiple compared to a normal saline-treated group, b-wave: single intravitreal injection 1 hour after LED exposure
[3] = molecular target: T1, BRD2 (BD1) (Homo sapiens, UniProt P25440); experiment: Binding inhibitory effect on BRD2 protein (AlphaScreen, acetyl-histone H4 peptide); conditions: GST-BRD2 (BD1) 100 nM, biotinylated acetyl-histone H4 peptide 100 nM
T1 construct: a bromodomain of BRD2 (BD1) and BRD3 (BD1), one of the BET protein family

[4] = molecular target: T2, BRD3 (BD1) (Homo sapiens, UniProt Q15059); experiment: Binding inhibitory effect on BRD3 protein (AlphaScreen, same manner as 1-1); conditions: same manner as Experimental Example 1-1
T2 construct: a bromodomain of BRD2 (BD1) and BRD3 (BD1), one of the BET protein family; GST
T2 sequence (Q15059 34-140 limits assumed): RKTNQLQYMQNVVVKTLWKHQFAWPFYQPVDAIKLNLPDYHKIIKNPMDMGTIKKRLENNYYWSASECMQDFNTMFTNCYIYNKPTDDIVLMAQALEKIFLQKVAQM

T1 sequence (P25440 74-180 limits assumed): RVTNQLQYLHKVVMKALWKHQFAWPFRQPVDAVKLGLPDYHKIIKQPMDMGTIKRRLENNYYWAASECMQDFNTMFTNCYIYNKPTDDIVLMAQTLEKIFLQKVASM

| Structure (SMILES) | Wavelength enhanced multiple compared to a normal saline-treated group, Average value [2] | Wavelength enhanced multiple compared to a normal saline-treated group, a-wave [2] | Wavelength enhanced multiple compared to a normal saline-treated group, b-wave [2] | IC50 [3] [µM] | IC50 [4] [µM] | CTF value ([1]; FFA imaging) | Lesion size compared to negative control group ([1]; FFA imaging) [%] | Lesion size compared to negative control group ([1]; OCT imaging) [%] | Volume of lesion ([1]; OCT imaging) |
| --- | --- | --- | --- | --- | --- | --- | --- | --- | --- |
| CC(C)NCc1ccc(-c2ccccc2-c2cccc3c2CN(C)C3=O)o1 [Compound 8, 2-methyl-4-(2-(5-((isopropylamino)methyl)furan-2-yl)phenyl)isoindoline-1-one] | – | – | – | 16.6 | – | – | – | – | – |
| CNC(=O)C1(Cc2ccccc2)CCCN(Cc2ccc(-c3ccccc3-c3cccc4c3CN(C)C4=O)o2)C1 (stereo not shown) [Compound 27] | – | – | – | 14.1 | 2.54 | – | – | – | – |
| CN1Cc2c(cccc2-c2ccccc2-c2ccc(CN3CCOCC3)o2)C1=O [Compound 13, 2-methyl-4-(2-(5-(morpholinomethyl)furan-2-yl)phenyl)isoindoline-1-one] | 1.33 | 1.29 | 1.36 | – | – | 321,816 Pixels | 34.96 | 57.66 | 1,256,002 μm^3 |
| CN1Cc2c(cccc2-c2ccccc2-c2ccc(CNCc3cnn(C)c3)o2)C1=O [Compound 18, 2-methyl-4-(2-(5-((((1-methyl-1H-pyrazole-4yl)methyl)amino)methyl)furan-2-yl)phenyl)isoindoline-1-one] | 2.04 | 2.05 | 2.03 | – | – | 389,222 Pixels | 42.28 | 45.15 | 983,477 μm^3 |
| CNC(=O)C1(C)CN(Cc2ccc(-c3ccccc3-c3cccc4c3CN(C)C4=O)o2)CCC1O (stereo not shown) [Compound 25] | 1.27 | 1.52 | 1.01 | – | – | 300,650 Pixels | 32.66 | 44.01 | 958,694 μm^3 |
| CNC(=O)C1(Cc2ccc(F)cc2)CCN(Cc2ccc(-c3ccccc3-c3cccc4c3CN(C)C4=O)o2)CC1 [Compound 21, 2-methyl-4-(2-(5-(((4-(4-fluorobenzyl)-4′-carboxamidyl)piperidine)methyl)furan-2-yl)phenyl)isoindoline-1-one] | 2.30 | 2.17 | 2.42 | – | – | 251,239 Pixels | 27.29 | 40.79 | 888,502 μm^3 |

More lines, main results first:

| Wavelength enhanced multiple compared to a normal saline-treated group, Average value [2] | Wavelength enhanced multiple compared to a normal saline-treated group, a-wave [2] | Wavelength enhanced multiple compared to a normal saline-treated group, b-wave [2] | IC50 [3] [µM] | IC50 [4] [µM] | Structure (SMILES) | CTF value ([1]; FFA imaging) | Lesion size compared to negative control group ([1]; FFA imaging) [%] | Lesion size compared to negative control group ([1]; OCT imaging) [%] | Volume of lesion ([1]; OCT imaging) |
| --- | --- | --- | --- | --- | --- | --- | --- | --- | --- |
| 1.32 | 1.25 | 1.38 | – | – | CNC(=O)CC1C(=O)NCCN1Cc1oc(-c2ccccc2-c2cccc3c2CN(C)C3=O)cc1C (stereo not shown) [Compound 42, 2-methyl-4-(2-(5-(3-methyl(N-methyl-2-(3-oxopiperazine-2yl)acetamidyl)methyl)furan-2-yl)phenyl)isoindoline-1-one] | 381,846 Pixels | 41.48 | 52.86 | 1,151,561 μm^3 |
| 1.38 | 1.45 | 1.31 | – | – | CN1Cc2c(cccc2-c2ccccc2-c2ccc(COCN3CCC(F)(F)CC3)o2)C1=O [Compound 37, 2-methyl-4-(2-(5-((((4,4-difluoropiperidine-1-yl)methoxy)-3-carboxamidyl)methyl)furan-2-yl)phenyl)isoindoline-1-one] | 320,028 Pixels | 34.76 | 46.40 | 1,010,752 μm^3 |
| – | – | – | 12.3 | 1.22 | CNC(=O)CC1C(=O)NCCN1C(=O)c1ccc(-c2ccccc2-c2cccc3c2CN(C)C3=O)o1 (stereo not shown) [Compound 35] | – | – | – | – |
| 1.36 | 1.21 | 1.51 | – | – | CNC(=O)C1(Cc2ccc(F)cc2)CCN(Cc2oc(-c3ccccc3-c3cccc4c3CN(C)C4=O)cc2C)CC1 [Compound 39, 2-methyl-4-(2-(5-((3-methyl (4-(4-fluorobenzyl)-4′-carboxamidyl)piperidine)methyl)furan-2-yl)phenyl)isoindoline-1-one] | 252,108 Pixels | 27.38 | 58.10 | 1,265,636 μm^3 |
| 1.30 | 1.16 | 1.43 | – | – | CCC1(C(=O)NC)CCCN(Cc2oc(-c3ccccc3-c3cccc4c3CN(C)C4=O)cc2C)C1 (stereo not shown) [Compound 40] | 362,456 Pixels | 39.37 | 54.01 | 1,176,522 μm^3 |
